Measurements taken from US20210392890A1, “COMPOSITIONS COMPRISING PYRIDINE CARBOXYLATE HERBICIDES AND PLANT GROWTH REGULATORS” (Corteva Agriscience LLC, priority 2018, published 2021).
Where “and” joins values, the source holds several entries; their conditions need not be identical. Equal entries are not always repeated. Where two headings read alike, the source gives them in different places.

Key:
Format in all cases: in vivo
rice (ORYSA) = conditions: Ethephon 0 g/ha
From the text: (§1) Seeds of the desired test plant species were planted in a 90:10% v/v (volume/volume) mixture of PRO-MIX® BX (Premier Tech Horticulture, Quakertown, Pa., USA) and PROFILE® GREENS GRADE™ (Profile Products LLC, Buffalo Grove, Ill., USA) planting mixture, which typically has a pH of 5.2 to 6.2 and an organic matter content of at least 50 percent, in plastic pots with a surface area of 103.2 square centimeters (cm^2). In some aspects, to help ensure good germination and healthy plants, a fungicide treatment and/or other chemical or physical treatment was applied. The plants were grown for 7-36 days (d) in a greenhouse with an approximate 14-hour (h) photoperiod which was maintained at about 23° C. during the day and 22° C. during the night. Nutrients and water were added on a regular basis and supplemental lighting was provided with overhead metal halide 1000-Watt lamps as necessary. The plants were employed for testing when they reached the second or third true leaf stage.
(§2) Emulsifiable concentrates of each of each pyridine carboxylate herbicide (Compound A or Compound B) were prepared at 100 grams acid equivalent per liter (g ae/L). The emulsifiable concentrates also included a safener, cloquintocet-mexyl, at 120 grams active ingredient per liter (g ai/L). […]
(§3) The treated plants and control plants were placed in a greenhouse as described above and watered by sub-irrigation to prevent wash-off of the test compounds. After 20-22 d, the condition of the test plants as compared with that of the control plants was determined visually and scored on a scale of 0 to 100 percent where 0 corresponds to no injury and 100 corresponds to complete kill. […]

[1] = test system: Rumex obtusifolia (broadleaf dock); assay: Greenhouse postemergence herbicidal effect on RUMOB; conditions: Ethephon 0 g/ha
From the text: as §1, §2, §3

[2] = test system: Matricaria discoidea (pineapple weed); assay: Greenhouse postemergence herbicidal effect on MATMT
From the text: as §1, §2
(§4) The treated plants and control plants were placed in a greenhouse as described above and watered by sub-irrigation to prevent wash-off of the test compounds. After 20-22 d, the condition of the test plants as compared with that of the control plants was determined visually and scored on a scale of 0 to 100 percent where 0 corresponds to no injury and 100 corresponds to complete kill.

[3] = test system: Viola arvensis (field violet); assay: Greenhouse postemergence herbicidal effect on VIOAR
From the text: as §1, §2, §4

[4] = test system: Setaria faberi (giant foxtail); assay: Greenhouse postemergence herbicidal effect on SETFA; conditions: for Herbicidal Effects (% visual injury) SETFA Obs: Ethephon 0 g/ha
From the text: as §1
(§5) Emulsifiable concentrates of each of each pyridine carboxylate herbicide (Compound A or Compound B) were prepared at 100 grams acid equivalent per liter (g ae/L). The emulsifiable concentrates also included a safener, cloquintocet-mexyl, at 120 grams active ingredient per liter (g ai/L). An aliquot of each emulsifiable concentrate was placed in a 25 mL glass vial and diluted with an aqueous mixture of 1.25% (v/v) ACTIROB® B esterified rapeseed oil (Bayer Crop Science, Research Triangle Park, N.C., USA) or MSO® Concentrate with LECI-TECH® methylated soybean oil (Loveland Products, Loveland, Colo., USA) to obtain concentrated stock solutions at the highest application rate for each herbicide, based upon a 12 milliliter (mL) application volume at a rate of 187 liters per hectare (L/ha). The concentrated stock solutions were further diluted with an aqueous mixture of 1.25% v/v ACTIROB® B or MSO® Concentrate with LECI-TECH® to obtain stock solutions at reduced application rates for each herbicide. Spray solutions of the herbicide combinations (Compound A or Compound B plus the PGR) were prepared by adding weighed amounts or aliquots of the PGR to the stock solutions of Compound A or Compound B to form 12-mL spray solutions in two-way combinations.
(§6) The spray solutions were applied to the plant material with an overhead Mandel track sprayer equipped with 8002E nozzles calibrated to deliver 187 L/ha over an application area of 0.503 square meters (m^2) at a spray height of 18 inches (43 centimeters (cm)) above the average plant canopy. Control plants were sprayed in the same manner with the solvent blank. All pyridine carboxylate herbicide (component a) application rates are given as “g ae/ha” and all PGR (component b) application rates are given as “g ai/ha.”
as §4

[5] = test system: Lamium purpureum (purple deadnettle); assay: Greenhouse postemergence herbicidal effect on LAMPU
From the text: as §1, §2, §4

[6] = test system: Veronica persica (Persian speedwell); assay: Greenhouse postemergence herbicidal effect on VERPE
From the text: as §1, §2, §4

[7] = test system: Abutilon theophrasti (velvetleaf); assay: Greenhouse postemergence herbicidal effect on ABUTH; conditions: for Herbicidal Effects (% visual injury) ABUTH Obs: Ethephon 0 g/ha
From the text: as §1, §5, §6, §4

[8] = test system: Stellaria media (chickweed); assay: Greenhouse postemergence herbicidal effect on STEME; conditions: for Herbicidal Effects (% visual injury) STEME Obs: Ethephon 0 g/ha
From the text: as §1, §5, §6, §4

Kochia scoparia (kochia) = assay: Greenhouse postemergence herbicidal effect on KCHSC; conditions: for Herbicidal Effects (% visual injury) KCHSC Obs: Ethephon 0 g/ha
From the text: as §1, §5, §6, §4

[9] = test system: Matricaria inodora (scentless chamomile); assay: Greenhouse postemergence herbicidal effect on MATIN
From the text: as §1, §2, §4

[10] = test system: Brassica napus (spring rape); assay: Greenhouse postemergence herbicidal effect on BRSNN; conditions: for Herbicidal Effects (% visual injury) BRSNN Obs: Ethephon 0 g/ha
From the text: as §1, §5, §6, §4

[11] = test system: Sinapis arvensis (wild mustard); assay: Greenhouse postemergence herbicidal effect on SINAR
From the text: as §1, §2, §4

[12] = test system: Capsella bursa-pastoris (shepherd's purse); assay: Greenhouse postemergence herbicidal effect on CAPBP
From the text: as §1, §2, §4

[13] = test system: Echinochloa crus-galli (barnyard grass); assay: Greenhouse postemergence herbicidal effect on ECHCG; conditions: Ethephon 0 g/ha
From the text: as §1, §2, §3

[14] = test system: Helianthus annuus (common sunflower); assay: Greenhouse postemergence herbicidal effect on HELAN; conditions: for Herbicidal Effects (% visual injury) HELAN Obs: Ethephon 0 g/ha
From the text: as §1, §5, §6, §4

[15] = test system: Papaver rhoeas (herbicide-resistant poppy); assay: Greenhouse postemergence herbicidal effect on PAPRH-RES
From the text: as §1, §2, §4

SMILES: N#CCOC(=O)c1nc(-c2ccc3cc[nH]c3c2F)c(F)c(N)c1Cl [Compound A, cyanomethyl 4-amino-3-chloro-5-fluoro-6-(7-fluoro-1H-indol-6-yl)pyridine-2-carboxylate]
- Herbicidal Effects (% visual injury) ORYSA Obs (rice (ORYSA); Compound A 7.5 g/ha): 15%
- Herbicidal Effects (% visual injury) ORYSA Obs (rice (ORYSA); Compound A 10 g/ha): 18%
- Herbicidal Effects (% visual injury) RUMOB Obs ([1]; Compound A 7.5 g/ha): 8%
- Herbicidal Effects (% visual injury) RUMOB Obs ([1]; Compound A 10 g/ha): 18%
- % visual injury Obs ([2]; herbicide 7.5 g ae/ha alone): 20%
- % visual injury Obs ([2]; herbicide 10 g ae/ha alone): 20%
- % visual injury Obs ([2]; herbicide 15 g ae/ha alone): 63%
- % visual injury Obs ([3]; herbicide 7.5 g ae/ha alone): 10%
- % visual injury Obs ([3]; herbicide 10 g ae/ha alone): 13%
- % visual injury Obs ([3]; herbicide 15 g ae/ha alone): 10%
- Herbicidal Effects (% visual injury) SETFA Obs ([4]; Compound A 7.5 g/ha): 55%
- Herbicidal Effects (% visual injury) SETFA Obs ([4]; Compound A 10 g/ha): 70%
- % visual injury Obs ([4]; herbicide 7.5 g ae/ha alone): 78%
- % visual injury Obs ([4]; herbicide 10 g ae/ha alone): 80%
- % visual injury Obs ([5]; herbicide 7.5 g ae/ha alone): 68%
- % visual injury Obs ([5]; herbicide 10 g ae/ha alone): 73%
- % visual injury Obs ([5]; herbicide 15 g ae/ha alone): 73%
- % visual injury Obs ([6]; herbicide 7.5 g ae/ha alone): 78%
- % visual injury Obs ([6]; herbicide 10 g ae/ha alone): 90%
- % visual injury Obs ([6]; herbicide 15 g ae/ha alone): 93%
- Herbicidal Effects (% visual injury) ABUTH Obs ([7]; Compound A 7.5 g/ha): 73%
- Herbicidal Effects (% visual injury) ABUTH Obs ([7]; Compound A 10 g/ha): 85%
- % visual injury Obs ([7]; herbicide 7.5 g ae/ha alone): 40% and 68%
- % visual injury Obs ([7]; herbicide 10 g ae/ha alone): 48% and 80%
- Herbicidal Effects (% visual injury) STEME Obs ([8]; Compound A 7.5 g/ha): 100%
- Herbicidal Effects (% visual injury) STEME Obs ([8]; Compound A 10 g/ha): 100%
- % visual injury Obs ([8]; herbicide 7.5 g ae/ha alone): 89% and 85%
- % visual injury Obs ([8]; herbicide 10 g ae/ha alone): 90% and 88%
- % visual injury Obs ([8]; herbicide 15 g ae/ha alone): 89%
- Herbicidal Effects (% visual injury) KCHSC Obs (Kochia scoparia (kochia); Compound A 7.5 g/ha): 70%
- Herbicidal Effects (% visual injury) KCHSC Obs (Kochia scoparia (kochia); Compound A 10 g/ha): 65%
- % visual injury Obs (Kochia scoparia (kochia); herbicide 7.5 g ae/ha alone): 63% and 75%
- % visual injury Obs (Kochia scoparia (kochia); herbicide 10 g ae/ha alone): 65% and 73%
- % visual injury Obs (Kochia scoparia (kochia); herbicide 15 g ae/ha alone): 63%
- % visual injury Obs ([9]; herbicide 7.5 g ae/ha alone): 55%
- % visual injury Obs ([9]; herbicide 10 g ae/ha alone): 60%
- % visual injury Obs ([9]; herbicide 15 g ae/ha alone): 83%
- Herbicidal Effects (% visual injury) BRSNN Obs ([10]; Compound A 7.5 g/ha): 45%
- Herbicidal Effects (% visual injury) BRSNN Obs ([10]; Compound A 10 g/ha): 55%
- % visual injury Obs ([10]; herbicide 7.5 g ae/ha alone): 65%
- % visual injury Obs ([10]; herbicide 10 g ae/ha alone): 65%
- % visual injury Obs ([11]; herbicide 7.5 g ae/ha alone): 88%
- % visual injury Obs ([11]; herbicide 10 g ae/ha alone): 91%
- % visual injury Obs ([11]; herbicide 15 g ae/ha alone): 91%
- % visual injury Obs ([12]; herbicide 7.5 g ae/ha alone): 45%
- % visual injury Obs ([12]; herbicide 10 g ae/ha alone): 55%
- % visual injury Obs ([12]; herbicide 15 g ae/ha alone): 55%
- Herbicidal Effects (% visual injury) ECHCG Obs ([13]; Compound A 7.5 g/ha): 90%
- Herbicidal Effects (% visual injury) ECHCG Obs ([13]; Compound A 10 g/ha): 94%
- Herbicidal Effects (% visual injury) HELAN Obs ([14]; Compound A 7.5 g/ha): 100%
- Herbicidal Effects (% visual injury) HELAN Obs ([14]; Compound A 10 g/ha): 93%
- % visual injury Obs ([14]; herbicide 7.5 g ae/ha alone): 83% and 90%
- % visual injury Obs ([14]; herbicide 10 g ae/ha alone): 88% and 89%
- % visual injury Obs ([15]; herbicide 7.5 g ae/ha alone): 96%
- % visual injury Obs ([15]; herbicide 10 g ae/ha alone): 98%
- % visual injury Obs ([15]; herbicide 15 g ae/ha alone): 100%
